Assay results as given in ChEMBL document CHEMBL4507303, “Data for DCP probe TP-004” (2021).
Calls of active or inactive are those of the source. The calls are words filed in the database; no cut-off is given here.

Key:
[1] = molecular target: Activin receptor type-2B (Homo sapiens) (UniProt Q13705); details: Compound concentration 1000.0 nM
[2] = molecular target: Muscle, skeletal receptor tyrosine-protein kinase (Homo sapiens) (UniProt O15146); details: Compound concentration 1000.0 nM
[3] = molecular target: Platelet-derived growth factor receptor alpha (Homo sapiens) (UniProt P16234); details: Compound concentration 1000.0 nM
[4] = molecular target: BMP-2-inducible protein kinase (Homo sapiens) (UniProt Q9NSY1); details: Compound concentration 1000.0 nM
[5] = molecular target: Phosphatidylinositol 5-phosphate 4-kinase type-2 beta (Homo sapiens) (UniProt P78356); details: Compound concentration 1000.0 nM
Chain of Phosphatidylinositol 5-phosphate 4-kinase type-2 beta (Homo sapiens) (P78356 whole entry): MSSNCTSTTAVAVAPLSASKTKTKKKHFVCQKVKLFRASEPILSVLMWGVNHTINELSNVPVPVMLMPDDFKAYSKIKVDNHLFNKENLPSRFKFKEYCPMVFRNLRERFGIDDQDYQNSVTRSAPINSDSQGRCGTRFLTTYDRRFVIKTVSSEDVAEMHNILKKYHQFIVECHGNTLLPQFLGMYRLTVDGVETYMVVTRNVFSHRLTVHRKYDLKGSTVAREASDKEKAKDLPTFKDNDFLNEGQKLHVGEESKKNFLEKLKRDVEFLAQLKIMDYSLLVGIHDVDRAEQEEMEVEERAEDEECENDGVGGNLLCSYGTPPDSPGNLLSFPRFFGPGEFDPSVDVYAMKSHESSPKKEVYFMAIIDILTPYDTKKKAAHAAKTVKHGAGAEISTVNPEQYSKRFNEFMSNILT

[6] = molecular target: 5-hydroxytryptamine receptor 2B (Homo sapiens) (UniProt P41595); details: Compound concentration 10.0 uM
[7] = molecular target: Myosin light chain kinase, smooth muscle (Homo sapiens) (UniProt Q15746); details: Compound concentration 1000.0 nM
[8] = molecular target: Serine/threonine-protein kinase 32A (Homo sapiens) (UniProt Q8WU08); details: Compound concentration 1000.0 nM
[9] = tested on: Mast/stem cell growth factor receptor Kit (Homo sapiens), P10721 [A829P]; details: Compound concentration 1000.0 nM
[10] = molecular target: Calcium-dependent protein kinase 1 (Plasmodium falciparum) (UniProt P62344); details: Compound concentration 1000.0 nM
[11] = tested on: Tyrosine-protein kinase ABL1 (Homo sapiens), P00519 [T315I]; details: Compound concentration 1000.0 nM
[12] = molecular target: Cyclin-G-associated kinase (Homo sapiens) (UniProt O14976); details: Compound concentration 1000.0 nM
[13] = molecular target: Myosin-IIIb (Homo sapiens) (UniProt Q8WXR4); details: Compound concentration 1000.0 nM
[14] = molecular target: Ribosomal protein S6 kinase alpha-5 (Homo sapiens) (UniProt O75582); details: Compound concentration 1000.0 nM
[15] = molecular target: Atypical kinase COQ8B, mitochondrial (Homo sapiens) (UniProt Q96D53); details: Compound concentration 1000.0 nM
[16] = molecular target: Cyclin-dependent kinase-like 5 (Homo sapiens) (UniProt O76039); details: Compound concentration 1000.0 nM
[17] = molecular target: Methionine aminopeptidase 2 (Homo sapiens, UniProt P50579); assay: Biochemical activity-MetAP2 using Mn
[18] = molecular target: Mitogen-activated protein kinase 9 (Homo sapiens) (UniProt P45984); details: Compound concentration 1000.0 nM
Chain of Mitogen-activated protein kinase 9 (Homo sapiens) (P45984 whole entry, looked up): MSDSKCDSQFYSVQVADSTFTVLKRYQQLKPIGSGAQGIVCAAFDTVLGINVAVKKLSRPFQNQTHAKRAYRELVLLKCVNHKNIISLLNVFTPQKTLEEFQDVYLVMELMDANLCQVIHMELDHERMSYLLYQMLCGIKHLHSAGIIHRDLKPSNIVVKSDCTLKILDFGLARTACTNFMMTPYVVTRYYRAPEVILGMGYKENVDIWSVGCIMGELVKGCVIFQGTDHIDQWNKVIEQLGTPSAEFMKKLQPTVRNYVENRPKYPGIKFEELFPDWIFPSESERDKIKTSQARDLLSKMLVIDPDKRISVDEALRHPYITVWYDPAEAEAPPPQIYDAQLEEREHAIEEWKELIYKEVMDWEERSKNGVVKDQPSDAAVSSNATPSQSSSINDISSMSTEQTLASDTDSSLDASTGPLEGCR

[19] = molecular target: Insulin receptor-related protein (Homo sapiens) (UniProt P14616); details: Compound concentration 1000.0 nM
Chain of Insulin receptor-related protein (Homo sapiens) (P14616 27-742 limits assumed): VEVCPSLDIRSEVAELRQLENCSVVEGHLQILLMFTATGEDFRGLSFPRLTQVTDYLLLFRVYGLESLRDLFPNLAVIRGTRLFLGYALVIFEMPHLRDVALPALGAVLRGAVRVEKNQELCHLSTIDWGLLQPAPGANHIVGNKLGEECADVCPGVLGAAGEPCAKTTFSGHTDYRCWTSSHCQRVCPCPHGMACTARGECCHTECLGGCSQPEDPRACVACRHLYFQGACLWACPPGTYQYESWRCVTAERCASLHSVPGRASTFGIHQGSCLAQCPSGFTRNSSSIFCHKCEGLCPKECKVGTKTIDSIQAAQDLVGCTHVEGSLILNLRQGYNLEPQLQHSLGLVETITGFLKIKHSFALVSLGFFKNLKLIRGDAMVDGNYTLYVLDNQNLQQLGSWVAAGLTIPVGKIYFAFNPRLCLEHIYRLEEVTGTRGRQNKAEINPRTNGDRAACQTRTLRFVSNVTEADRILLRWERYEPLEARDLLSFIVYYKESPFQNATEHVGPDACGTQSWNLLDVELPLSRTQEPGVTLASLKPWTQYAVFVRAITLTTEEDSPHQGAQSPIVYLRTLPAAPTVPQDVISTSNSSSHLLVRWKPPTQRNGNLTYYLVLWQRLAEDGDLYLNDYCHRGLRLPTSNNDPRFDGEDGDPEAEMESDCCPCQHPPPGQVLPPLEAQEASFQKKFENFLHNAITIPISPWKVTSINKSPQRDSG
Chain of Insulin receptor-related protein (Homo sapiens) (P14616 747-1297 limits assumed): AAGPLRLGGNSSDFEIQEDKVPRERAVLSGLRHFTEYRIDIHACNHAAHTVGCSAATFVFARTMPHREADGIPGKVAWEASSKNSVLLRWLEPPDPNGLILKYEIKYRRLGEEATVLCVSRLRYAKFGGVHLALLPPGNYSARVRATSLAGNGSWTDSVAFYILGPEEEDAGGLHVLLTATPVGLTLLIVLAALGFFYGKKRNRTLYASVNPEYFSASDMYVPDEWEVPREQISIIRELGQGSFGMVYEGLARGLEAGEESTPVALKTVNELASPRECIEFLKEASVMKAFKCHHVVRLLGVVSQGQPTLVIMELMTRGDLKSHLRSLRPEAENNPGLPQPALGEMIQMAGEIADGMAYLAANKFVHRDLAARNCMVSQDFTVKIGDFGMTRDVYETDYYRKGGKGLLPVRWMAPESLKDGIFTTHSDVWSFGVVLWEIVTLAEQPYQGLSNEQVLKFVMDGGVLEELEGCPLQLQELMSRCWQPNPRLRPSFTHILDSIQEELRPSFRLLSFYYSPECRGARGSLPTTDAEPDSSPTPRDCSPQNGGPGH

[20] = molecular target: Serine/threonine-protein kinase TBK1 (Homo sapiens) (UniProt Q9UHD2); details: Compound concentration 1000.0 nM
[21] = molecular target: Tyrosine-protein kinase ZAP-70 (Homo sapiens) (UniProt P43403); details: Compound concentration 1000.0 nM
Chain of Tyrosine-protein kinase ZAP-70 (Homo sapiens) (P43403 whole entry): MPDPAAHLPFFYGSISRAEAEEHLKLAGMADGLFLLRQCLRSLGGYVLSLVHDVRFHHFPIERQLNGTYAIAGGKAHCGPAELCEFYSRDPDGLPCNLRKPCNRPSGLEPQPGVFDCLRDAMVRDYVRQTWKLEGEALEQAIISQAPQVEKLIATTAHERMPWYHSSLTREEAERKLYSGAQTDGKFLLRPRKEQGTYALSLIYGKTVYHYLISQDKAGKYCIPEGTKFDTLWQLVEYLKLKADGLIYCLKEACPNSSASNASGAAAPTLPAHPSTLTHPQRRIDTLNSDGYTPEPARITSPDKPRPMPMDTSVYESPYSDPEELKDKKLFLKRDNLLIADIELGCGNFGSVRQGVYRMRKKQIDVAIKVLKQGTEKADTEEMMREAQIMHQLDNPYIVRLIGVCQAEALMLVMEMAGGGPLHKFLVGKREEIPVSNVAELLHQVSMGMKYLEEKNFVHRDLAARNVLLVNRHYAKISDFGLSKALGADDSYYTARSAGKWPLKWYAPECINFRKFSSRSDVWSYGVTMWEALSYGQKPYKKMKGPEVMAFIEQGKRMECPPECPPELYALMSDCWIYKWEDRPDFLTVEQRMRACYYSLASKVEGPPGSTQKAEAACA

[22] = molecular target: Serine/threonine-protein kinase OSR1 (Homo sapiens) (UniProt O95747); details: Compound concentration 1000.0 nM
[23] = molecular target: Mitogen-activated protein kinase 14 (Homo sapiens) (UniProt Q16539); details: Compound concentration 1000.0 nM
[24] = molecular target: STE20/SPS1-related proline-alanine-rich protein kinase (Homo sapiens) (UniProt Q9UEW8); details: Compound concentration 1000.0 nM
[25] = molecular target: 5-hydroxytryptamine receptor 3A (Homo sapiens) (UniProt P46098); details: Compound concentration 10.0 uM
[26] = molecular target: MAP/microtubule affinity-regulating kinase 4 (Homo sapiens) (UniProt Q96L34); details: Compound concentration 1000.0 nM
[27] = molecular target: Peripheral plasma membrane protein CASK (Homo sapiens) (UniProt O14936); details: Compound concentration 1000.0 nM
[28] = molecular target: MAP kinase-activated protein kinase 5 (Homo sapiens) (UniProt Q8IW41); details: Compound concentration 1000.0 nM
[29] = molecular target: Rhodopsin kinase GRK1 (Homo sapiens) (UniProt Q15835); details: Compound concentration 1000.0 nM
[30] = molecular target: Mitogen-activated protein kinase kinase kinase 3 (Homo sapiens) (UniProt Q99759); details: Compound concentration 1000.0 nM
[31] = molecular target: RAC-beta serine/threonine-protein kinase (Homo sapiens) (UniProt P31751); details: Compound concentration 1000.0 nM
[32] = molecular target: Proto-oncogene tyrosine-protein kinase Src (Homo sapiens) (UniProt P12931); details: Compound concentration 1000.0 nM
[33] = molecular target: Microtubule-associated serine/threonine-protein kinase 1 (Homo sapiens) (UniProt Q9Y2H9); details: Compound concentration 1000.0 nM
[34] = molecular target: Casein kinase I isoform gamma-1 (Homo sapiens) (UniProt Q9HCP0); details: Compound concentration 1000.0 nM
[35] = molecular target: Tyrosine-protein kinase JAK3 (Homo sapiens) (UniProt P52333); details: Compound concentration 1000.0 nM
[36] = molecular target: Dual specificity mitogen-activated protein kinase kinase 4 (Homo sapiens) (UniProt P45985); details: Compound concentration 1000.0 nM
[37] = molecular target: Serine/threonine-protein kinase 24 (Homo sapiens) (UniProt Q9Y6E0); details: Compound concentration 1000.0 nM
[38] = molecular target: Activin receptor type-1-like (Homo sapiens) (UniProt P37023); details: Compound concentration 1000.0 nM
[39] = molecular target: Epidermal growth factor receptor (Homo sapiens) (UniProt P00533); details: Compound concentration 1000.0 nM
[40] = tested on: Phosphatidylinositol 4,5-bisphosphate 3-kinase catalytic subunit alpha isoform (Homo sapiens), P42336 [I800L]; details: Compound concentration 1000.0 nM
[41] = molecular target: Mitogen-activated protein kinase kinase kinase 4 (Homo sapiens) (UniProt Q9Y6R4); details: Compound concentration 1000.0 nM
[42] = molecular target: Serine/threonine-protein kinase MARK2 (Homo sapiens) (UniProt Q7KZI7); details: Compound concentration 1000.0 nM
Chain of Serine/threonine-protein kinase MARK2 (Homo sapiens) (Q7KZI7 whole entry, the tested form may be a part): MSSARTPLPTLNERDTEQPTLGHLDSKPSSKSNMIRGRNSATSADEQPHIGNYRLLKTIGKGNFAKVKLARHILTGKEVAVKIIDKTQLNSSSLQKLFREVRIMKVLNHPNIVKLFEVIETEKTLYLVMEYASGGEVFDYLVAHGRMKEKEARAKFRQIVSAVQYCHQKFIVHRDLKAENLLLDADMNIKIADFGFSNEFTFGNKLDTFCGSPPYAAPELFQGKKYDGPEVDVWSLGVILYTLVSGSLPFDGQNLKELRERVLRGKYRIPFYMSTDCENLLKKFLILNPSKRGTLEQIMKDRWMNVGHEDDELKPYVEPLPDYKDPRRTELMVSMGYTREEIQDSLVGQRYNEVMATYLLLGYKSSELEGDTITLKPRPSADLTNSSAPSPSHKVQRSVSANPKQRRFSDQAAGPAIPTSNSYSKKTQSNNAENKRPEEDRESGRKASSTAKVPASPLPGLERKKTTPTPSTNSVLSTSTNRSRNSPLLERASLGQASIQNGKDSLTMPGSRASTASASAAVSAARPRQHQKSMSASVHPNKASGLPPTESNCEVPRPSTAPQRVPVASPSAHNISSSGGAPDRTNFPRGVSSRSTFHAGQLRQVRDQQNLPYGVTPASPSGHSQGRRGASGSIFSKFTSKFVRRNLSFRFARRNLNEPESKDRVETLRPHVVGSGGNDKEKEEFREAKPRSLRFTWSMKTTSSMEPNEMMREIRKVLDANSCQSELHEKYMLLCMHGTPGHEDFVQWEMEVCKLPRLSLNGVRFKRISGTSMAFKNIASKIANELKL

[43] = molecular target: Phosphatidylinositol 3-kinase C2 domain-containing subunit gamma (Homo sapiens) (UniProt O75747); details: Compound concentration 1000.0 nM
Chain of Phosphatidylinositol 3-kinase C2 domain-containing subunit gamma (Homo sapiens) (O75747 whole entry, the tested form may be a part): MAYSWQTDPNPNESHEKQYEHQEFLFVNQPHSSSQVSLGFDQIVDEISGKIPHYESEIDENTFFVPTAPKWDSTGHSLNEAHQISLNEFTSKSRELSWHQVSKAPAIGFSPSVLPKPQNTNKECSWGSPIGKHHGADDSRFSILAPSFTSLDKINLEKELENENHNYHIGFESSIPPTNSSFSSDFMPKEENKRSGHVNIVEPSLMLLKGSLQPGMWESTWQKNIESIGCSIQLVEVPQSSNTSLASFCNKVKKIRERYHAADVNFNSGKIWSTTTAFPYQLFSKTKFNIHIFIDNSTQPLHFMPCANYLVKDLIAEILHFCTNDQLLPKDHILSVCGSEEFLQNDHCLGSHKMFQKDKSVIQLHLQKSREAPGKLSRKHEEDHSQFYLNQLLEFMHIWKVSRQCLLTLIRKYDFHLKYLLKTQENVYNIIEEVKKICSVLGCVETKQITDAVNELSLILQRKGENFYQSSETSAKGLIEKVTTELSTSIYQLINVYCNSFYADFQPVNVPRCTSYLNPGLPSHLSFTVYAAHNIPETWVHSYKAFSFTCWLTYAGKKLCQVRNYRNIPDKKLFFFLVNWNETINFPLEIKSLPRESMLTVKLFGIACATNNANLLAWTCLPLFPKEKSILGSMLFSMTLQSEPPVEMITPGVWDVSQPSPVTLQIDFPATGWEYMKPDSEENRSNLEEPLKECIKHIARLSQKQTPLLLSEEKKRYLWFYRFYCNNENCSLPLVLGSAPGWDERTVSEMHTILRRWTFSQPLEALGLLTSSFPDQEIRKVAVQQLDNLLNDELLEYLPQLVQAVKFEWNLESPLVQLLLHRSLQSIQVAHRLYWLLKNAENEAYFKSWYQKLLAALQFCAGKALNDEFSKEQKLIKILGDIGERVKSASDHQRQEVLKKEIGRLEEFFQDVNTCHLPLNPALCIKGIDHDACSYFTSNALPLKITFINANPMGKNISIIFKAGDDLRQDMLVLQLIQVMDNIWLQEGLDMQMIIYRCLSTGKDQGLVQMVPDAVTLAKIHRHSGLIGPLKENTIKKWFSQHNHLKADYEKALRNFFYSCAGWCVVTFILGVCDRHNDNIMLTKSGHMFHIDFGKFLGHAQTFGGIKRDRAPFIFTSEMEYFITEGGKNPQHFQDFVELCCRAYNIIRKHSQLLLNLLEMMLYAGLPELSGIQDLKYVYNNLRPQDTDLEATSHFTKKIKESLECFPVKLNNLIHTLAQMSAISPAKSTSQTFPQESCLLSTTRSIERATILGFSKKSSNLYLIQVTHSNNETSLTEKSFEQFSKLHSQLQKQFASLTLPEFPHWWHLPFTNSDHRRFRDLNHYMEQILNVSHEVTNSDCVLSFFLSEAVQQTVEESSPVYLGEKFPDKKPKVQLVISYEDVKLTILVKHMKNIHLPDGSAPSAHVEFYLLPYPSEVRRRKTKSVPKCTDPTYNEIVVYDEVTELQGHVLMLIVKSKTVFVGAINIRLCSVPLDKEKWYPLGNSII

[44] = molecular target: Mitotic checkpoint serine/threonine-protein kinase BUB1 (Homo sapiens) (UniProt O43683); details: Compound concentration 1000.0 nM
[45] = molecular target: Serine/threonine-protein kinase 32C (Homo sapiens) (UniProt Q86UX6); details: Compound concentration 1000.0 nM

Cc1nc(N2CC[C@@H](O)C2)ncc1-c1cc(C(F)(F)F)cc2[nH]ncc12 [TP-004]
residual activity [1]: 79% | residual activity [2]: 85% | residual activity [3]: 76% | residual activity [4]: 100% | residual activity [5]: 100% | inhibition [6]: -1.83% | residual activity [7]: 100% | residual activity [8]: 85% | residual activity [9]: 60% | residual activity [10]: 100% | residual activity [11]: 78% | residual activity [12]: 83% | residual activity [13]: 93% | residual activity [14]: 81% | residual activity [15]: 100% | residual activity [16]: 77% | IC50 [17]: 7 nM (active) | residual activity [18]: 61% | residual activity [19]: 87% | residual activity [20]: 82% | residual activity [21]: 65% | residual activity [22]: 67% | residual activity [23]: 100% | residual activity [24]: 99% | inhibition [25]: 6.06% | residual activity [26]: 80% | residual activity [27]: 95% | residual activity [28]: 68% | residual activity [29]: 52% | residual activity [30]: 82% | residual activity [31]: 87% | residual activity [32]: 95% | residual activity [33]: 100% | residual activity [34]: 78% | residual activity [35]: 77% | residual activity [36]: 97% | residual activity [37]: 100% | residual activity [38]: 100% | residual activity [39]: 71% | residual activity [40]: 66% | residual activity [41]: 100% | residual activity [42]: 100% | residual activity [43]: 90% | residual activity [44]: 75% | residual activity [45]: 86%
